In paper PMC12271471, “Direct synthesis of mycophenolic acid aryl esters with antioxidant and antiproliferative properties” (Scientific Reports, 2025):

Key:
[1] = test system: PBMCs; assay: VPD450 proliferation test (flow cytometry) on PBMCs; type: cell-based, human; conditions: for EC50: Homo sapiens, PBMC, PBMCs stimulated with anti-CD3/anti-CD28 beads, 72 h, mean ± SD; for SI selectivity index PBMCs (IC50/EC50): ratio between IC50 (XTT) and EC50 (VPD450) on PBMCs
Protocol: (§1) These values indicate the concentration of any compound at which proliferation of PBMCs (healthy cells), and T-Jurkat cells (T-cell leukemia), is inhibited by 50% compared to the control. Cells were treated with the compounds for 72 h (PBMCs) or 48 h (T-Jurkat), followed by a […] VPD450 test. The results are presented in ESI Fig. S3 as proliferation curves concerning concentration.
(§2) ESI Figure 3. Concentration-dependent change in proliferation under the treatment of ester derivatives of MPA. (A) VPD450-labelled PBMCs were cultured in the presence of different concentrations (100; 50; 25; 10; 1; 0.1, and 0.01 μM) of MPA, MMF, and ester derivatives, and stimulated with magnetic beads coated with anti-CD3 and anti-CD28 antibodies for 72 hours. (B) VPD450-labelled T-Jurkat cells were cultured in the presence of different concentrations (100; 10; 1; 0.1 and 0.01 μM) of MPA and ester derivatives for 48 hours. The plots were separated based on the type of ester derivative (P or MP). Cell proliferation was analyzed using flow cytometry. The results are expressed […]
(§3) (1 picture or pasted object on this page, not shown here) […]
(§4) inhibited cell viability by more than 50%. Each experiment was conducted in triplicate, and the final […]
(§5) VPD450 dye-based in vitro cell proliferation test
(§6) PBMCs and T-Jurkat cells were washed twice with warm PBS (37°C), re-suspended in fresh PBS at a final concentration of 10-30∙10^6 cells/ml, and labelled with 1 µl of VPD450 (BD Biosciences) at 37°C for 15 minutes, with vortexing every 5 minutes to ensure uniform staining. Subsequently, cells were washed with PBS, then with the complete medium (X-VIVO20 for PBMCs and RPMI-1640 for T-Jurkat cells), next re-suspended in fresh complete medium and seeded into 96-well plates at a concentration of 1∙10^6 cells per well. PBMCs were additionally stimulated with magnetic beads coated with anti-CD3 and anti-CD28 antibodies (Invitrogen) at a 2:1 cell-to-bead ratio. To the experimental wells, 100 µl of the MPA derivatives were added to achieve final concentrations of 50, 25, 10, 5, 1, 0.1, and 0.01 µM. In parallel, control wells containing stained but unstimulated cells and stained, stimulated cells were prepared at the same concentration. Cell proliferation was analyzed using an LSRFortessa flow cytometer (BD Biosciences) and Kaluza C Flow Cytometry Analysis Software (Beckman Coulter). […]
(§7) Statistical analysis was conducted using GraphPad Prism 9 (GraphPad Software Inc).
(§8) Differences between MMF, MPA and its new derivatives were assessed using a two-tailed unpaired Student’s t-test, with statistical significance defined as p < 0.05. EC50 and IC50 values were determined by fitting data to a four-parameter non-linear regression model in GraphPad Prism 9. Statistical significance was evaluated using the t-test.

[2] = test system: T-Jurkat cells; assay: VPD450 proliferation test (flow cytometry) on T-Jurkat cells; type: cell-based, human; conditions: for EC50: Homo sapiens, T-Jurkat, 48 h, mean ± SD; for SI selectivity index T-Jurkat (IC50/EC50): ratio between IC50 (XTT) and EC50 (VPD450) on T-Jurkat cell line; for IS internal selectivity (EC50 PBMCs / EC50 T-Jurkat): ratio between VPD450 EC50 values for PBMCs and T-Jurkat cell line
Protocol: as §1, §2, §3, §4, §5, §6, §7, §8

[3] = DPPH radical scavenging test (colorimetric); conditions: concentration scavenging 50% of DPPH radicals; 10 min, room temperature, 517 nm; mean ± SD
Protocol: Antioxidative properties of the obtained MPA derivatives were assessed chemically using a colorimetric DPPH test. The IC50 value represents the scavenging activity, defined as the concentration of a compound required to scavenge 50% of DPPH radicals.
Briefly, 400 µL solution of each synthesized compound with different concentrations (20–1000 µg/mL) was added to 1.6 mL DPPH solution (100 µmol/L). After shaking, the mixture was incubated at room temperature in the dark for 10 min, and then the absorbance was measured at 517 nm. The %Scavenging activity was calculated by using the formula: […]
The scavenging activity was expressed as IC50 value, defined as the concentration (mM) of compound required for scavenging DPPH radicals by 50%. IC50 values were determined by linear regression analysis using at least three different concentrations in duplicate.
Three different concentrations were prepared for each sample, while each one was analyzed in duplicate. […] The statistical analysis was performed using Tukey’s HSD test (p < 0.05). The statistical software Statistica 10 software (StatSoft Inc., Tulsa, OK, USA) was implemented for this analysis.

Compound | EC50 [1] | SI selectivity index PBMCs (IC50/EC50) [1] | EC50 [2] | SI selectivity index T-Jurkat (IC50/EC50) [2] | IS internal selectivity (EC50 PBMCs / EC50 T-Jurkat) [2] | IC50 [3]
COc1c(C)c2c(c(O)c1C/C=C(\C)CCC(=O)Oc1ccc3c(c1)OCO3)C(=O)OC2 [P1] | 1.152 ± 0.004 µM | 108.919 | 2.01 ± 0.042 µM | 0.533 | 0.573 | 43570 ± 380 µM
COC(=O)/C=C/c1ccc(OC(=O)CC/C(C)=C/Cc2c(O)c3c(c(C)c2OC)COC3=O)c(OC)c1 [MP7] | 7.734 ± 0.007 µM | 3.935 | 4.923 ± 0.034 µM | 0.286 | 1.571 | 3640 ± 113 µM
COC(=O)/C=C/c1ccccc1OC(=O)CC/C(C)=C/Cc1c(O)c2c(c(C)c1OC)COC2=O [P4] | 4.865 ± 0.004 µM | 5.321 | 3.53 ± 0.045 µM | 0.470 | 1.380 | 308 ± 31 µM
COc1c(C)c2c(c(O)c1C/C=C(\C)CCC(=O)OCCN1CCOCC1)C(=O)OC2 [MMF, mycophenolate mofetil, reference compound] | 1.037 ± 0.006 µM | 16.020 | 0.609 ± 0.03 µM | 1.216 | 1.704 | 19000 ± 279 µM
COc1cc(C=O)cc(OC)c1OC(=O)CC/C(C)=C/Cc1c(O)c2c(c(C)c1OC)COC2=O [MP3] | 13.742 ± 0.005 µM | 0.770 | 4.458 ± 0.04 µM | 0.997 | 3.083 | 12200 ± 252 µM
C/C=C/c1ccc(OC(=O)CC/C(C)=C/Cc2c(O)c3c(c(C)c2OC)COC3=O)c(OC)c1 [MP9] | 2.356 ± 0.003 µM | 8.978 | 1.84 ± 0.043 µM | 1.070 | 1.283 | 373 ± 41 µM
C=CCc1ccc(OC(=O)CC/C(C)=C/Cc2c(O)c3c(c(C)c2OC)COC3=O)c(OC)c1 [MP8] | 1.154 ± 0.003 µM | 15.409 | 1.74 ± 0.023 µM | 0.983 | 0.665 | 6900 ± 225 µM
COc1ccccc1OC(=O)CC/C(C)=C/Cc1c(O)c2c(c(C)c1OC)COC2=O [MP1] | 1.106 ± 0.004 µM | 13.365 | 0.78 ± 0.034 µM | 1.259 | 1.418 | 23800 ± 411 µM
COc1c(C)c2c(c(O)c1C/C=C(\C)CCC(=O)O)C(=O)OC2 [MPA, Mycophenolic acid] | 1.154 ± 0.006 µM | 16.232 | 0.924 ± 0.034 µM | 0.570 | 1.249 | 15730 ± 144 µM
COc1c(C)c2c(c(O)c1C/C=C(\C)CCC(=O)Oc1ccc(CCC(C)=O)cc1)C(=O)OC2 [P7] | 1.047 ± 0.006 µM | 48.036 | 2.23 ± 0.044 µM | 1.083 | 0.470 | 124 µM
COc1cc(C=O)ccc1OC(=O)CC/C(C)=C/Cc1c(O)c2c(c(C)c1OC)COC2=O [MP4] | 2.9 ± 0.005 µM | 8.098 | 7.509 ± 0.036 µM | 0.710 | 0.386 | 6400 ± 311 µM
COc1c(C)c2c(c(O)c1C/C=C(\C)CCC(=O)Oc1cc(C)ccc1C(C)C)C(=O)OC2 [P2] | 1.417 ± 0.003 µM | 11.538 | 4.477 ± 0.033 µM | 0.552 | 0.317 | 11670 ± 113 µM
COc1c(C)c2c(c(O)c1C/C=C(\C)CCC(=O)Oc1ccc(C=O)cc1)C(=O)OC2 [P5] | 1.656 ± 0.003 µM | 6.007 | 2.357 ± 0.023 µM | 0.671 | 0.703 | 28200 ± 357 µM
COc1cccc(OC)c1OC(=O)CC/C(C)=C/Cc1c(O)c2c(c(C)c1OC)COC2=O [MP2] | 5.395 ± 0.006 µM | 4.174 | 2.64 ± 0.035 µM | 0.662 | 2.042 | 3720 ± 230 µM
